Data as given in ChEMBL document CHEMBL5356971, “Optimization of the Antibacterial Spectrum and the Developability Profile of the Novel-Class Natural Product Corramycin” (J Med Chem, 2023).
In brackets after ≈: the same amount, converted by molar mass. Numbered stars: 1 amine (or outer) side, 2 acyl side, 3 side chain; on linkers, the order of the positions; unused ones are H or OH. Square brackets hold non-standard residues; d marks the D form. Peptide text beside a SMILES is read from it. * marks the point of attachment. Ava(2S,3R-(OH)2,4S-OMe) = CO[C@@H](CN[*:1])[C@H](O)[C@H](O)C(=O)[*:2]; dHis(βS-OH,π-Me) = Cn1cncc1[C@@H](O)[C@@H](N)C(=O)O; Butanoyl(2R-OH,3S-OH) = C[C@H](O)[C@@H](O)C(=O)*; Val(3-OH) = CC(C)(O)[C@H](N)C(=O)O; NMeF = CN[C@@H](Cc1ccccc1)C(=O)O

Columns and labels:
Klebsiella pneumoniae [1] = assay: Antibacterial activity against wild type Klebsiella pneumoniae ATCC 13883 assessed as reduction in microbial growth incubated for 20 to 22 hrs by CLSI based analysis; type: functional; conditions: time 20-22 hrs
[2] = Lipophilicity, log D of the compound at pH 7.4; type: physicochemical; conditions: buffer
[3] = Permeability of compound in human Caco-2 cells; type: ADME, cell-based; conditions: read-out: permeability
HepG2 = assay: Cytotoxicity against human HepG2 cells assessed as inhibition of cell growth at 30 uM incubated for 40 hrs by celltiterglo assay; type: functional
[4] = Metabolic stability in mouse kidney assessed as M2 metabolite formation measured upto 4 hrs by UPLC-MS analysis; type: ADME, tissue-based
[5] = target: T1, A-type voltage-gated potassium channel KCND3 (Homo sapiens, UniProt Q9UK17); assay: Inhibition of Kv4.3 (unknown origin)
T1 sequence (Q9UK17 whole entry): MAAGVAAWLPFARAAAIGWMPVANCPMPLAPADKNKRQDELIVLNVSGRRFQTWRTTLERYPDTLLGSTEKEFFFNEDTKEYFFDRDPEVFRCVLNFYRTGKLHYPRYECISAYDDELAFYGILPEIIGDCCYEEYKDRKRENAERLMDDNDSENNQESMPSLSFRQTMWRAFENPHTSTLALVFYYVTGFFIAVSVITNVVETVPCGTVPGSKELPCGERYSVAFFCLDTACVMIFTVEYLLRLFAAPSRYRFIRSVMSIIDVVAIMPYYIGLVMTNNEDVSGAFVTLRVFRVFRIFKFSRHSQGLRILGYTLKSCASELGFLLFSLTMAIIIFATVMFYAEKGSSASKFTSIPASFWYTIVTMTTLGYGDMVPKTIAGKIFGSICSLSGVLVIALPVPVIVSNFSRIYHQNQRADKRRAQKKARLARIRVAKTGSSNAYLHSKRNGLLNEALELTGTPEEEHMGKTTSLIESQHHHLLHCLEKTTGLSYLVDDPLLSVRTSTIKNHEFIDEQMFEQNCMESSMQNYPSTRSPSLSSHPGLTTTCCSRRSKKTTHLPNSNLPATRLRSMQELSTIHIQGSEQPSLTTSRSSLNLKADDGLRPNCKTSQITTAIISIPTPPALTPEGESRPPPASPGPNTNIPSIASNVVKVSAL

Escherichia coli [6] = assay: Antibacterial activity against Escherichia coli ATCC 35218 harboring SbmA assessed as reduction in microbial growth incubated for 20 to 22 hrs by CLSI based analysis; type: functional; conditions: time 20-22 hrs
[7] = Metabolic stability in mouse lung assessed as parent compound remaining measured after 4 hrs by UPLC-MS analysis; type: ADME, tissue-based; conditions: mouse lung, read-out: Stability
Pseudomonas aeruginosa [8] = assay: Antimicrobial activity against Pseudomonas aeruginosa assessed as microbial growth inhibition; type: functional
Klebsiella pneumoniae [9] = assay: Antibacterial activity against Klebsiella pneumoniae ATCC 13883 harboring SbmA assessed as reduction in microbial growth incubated for 20 to 22 hrs by CLSI based analysis; type: functional; conditions: time 20-22 hrs
Acinetobacter baumannii [10] = assay: Antibacterial activity against Acinetobacter baumannii ATCC 19606 assessed as reduction in microbial growth incubated for 20 to 22 hrs by CLSI based analysis; type: functional; conditions: time 20-22 hrs
[11] = Metabolic stability in mouse kidney assessed as parent compound remaining measured after 1 hrs by UPLC-MS analysis; type: ADME, tissue-based; conditions: read-out: Stability
Escherichia coli [12] = assay: Antibacterial activity against Escherichia coli infected in mouse model assessed as mouse survival at 20 mg/kg iv; type: functional
Escherichia coli [13] = assay: Antibacterial activity against Escherichia coli D22 assessed as reduction in microbial growth incubated for 20 to 22 hrs by CLSI based analysis; type: functional; conditions: time 20-22 hrs
[14] = target: Voltage-gated inwardly rectifying potassium channel KCNH2 (Homo sapiens, UniProt Q12809); assay: Inhibition of hERG; type: toxicity
Voltage-gated inwardly rectifying potassium channel KCNH2, sequence (Q12809 whole entry): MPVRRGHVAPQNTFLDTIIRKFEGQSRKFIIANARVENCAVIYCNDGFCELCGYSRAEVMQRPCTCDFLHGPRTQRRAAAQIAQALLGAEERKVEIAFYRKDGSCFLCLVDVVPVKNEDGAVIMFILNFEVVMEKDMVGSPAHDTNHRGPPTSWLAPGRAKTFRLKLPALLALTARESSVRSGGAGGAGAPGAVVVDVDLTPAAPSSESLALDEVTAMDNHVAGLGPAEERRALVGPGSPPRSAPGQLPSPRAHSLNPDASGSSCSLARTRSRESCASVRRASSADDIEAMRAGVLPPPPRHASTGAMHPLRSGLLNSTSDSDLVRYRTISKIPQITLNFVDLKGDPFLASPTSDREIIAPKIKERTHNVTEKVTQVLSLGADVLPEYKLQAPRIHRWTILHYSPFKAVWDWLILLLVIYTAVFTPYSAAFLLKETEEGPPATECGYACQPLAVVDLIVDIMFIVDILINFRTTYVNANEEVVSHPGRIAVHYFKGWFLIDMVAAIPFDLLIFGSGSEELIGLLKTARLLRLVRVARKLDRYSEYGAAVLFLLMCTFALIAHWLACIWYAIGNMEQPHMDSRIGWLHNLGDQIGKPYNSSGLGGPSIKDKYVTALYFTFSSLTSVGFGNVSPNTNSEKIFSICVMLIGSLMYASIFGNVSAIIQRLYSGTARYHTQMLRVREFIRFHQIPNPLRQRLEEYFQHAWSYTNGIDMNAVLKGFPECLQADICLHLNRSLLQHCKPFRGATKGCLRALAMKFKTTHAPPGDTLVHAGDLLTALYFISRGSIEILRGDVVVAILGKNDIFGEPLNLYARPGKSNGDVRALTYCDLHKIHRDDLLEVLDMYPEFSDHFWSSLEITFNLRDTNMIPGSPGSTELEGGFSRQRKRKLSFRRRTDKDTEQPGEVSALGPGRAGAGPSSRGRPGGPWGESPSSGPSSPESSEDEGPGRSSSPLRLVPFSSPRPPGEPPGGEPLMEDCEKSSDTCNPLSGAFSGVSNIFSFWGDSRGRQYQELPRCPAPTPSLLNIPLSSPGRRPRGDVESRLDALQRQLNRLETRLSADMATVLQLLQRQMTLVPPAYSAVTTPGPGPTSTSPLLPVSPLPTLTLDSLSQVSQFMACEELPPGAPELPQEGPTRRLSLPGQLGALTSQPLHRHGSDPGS

Escherichia coli [15] = assay: Antimicrobial activity against Escherichia coli assessed as microbial growth inhibition; type: functional
[16] = Aqueous solubility of compound in PBS at pH 7.4; type: physicochemical
[17] = target: Sodium channel protein type 5 subunit alpha (Homo sapiens, UniProt Q14524); assay: Inhibition of Nav1.5 (unknown origin)
Sodium channel protein type 5 subunit alpha, sequence (Q14524 whole entry): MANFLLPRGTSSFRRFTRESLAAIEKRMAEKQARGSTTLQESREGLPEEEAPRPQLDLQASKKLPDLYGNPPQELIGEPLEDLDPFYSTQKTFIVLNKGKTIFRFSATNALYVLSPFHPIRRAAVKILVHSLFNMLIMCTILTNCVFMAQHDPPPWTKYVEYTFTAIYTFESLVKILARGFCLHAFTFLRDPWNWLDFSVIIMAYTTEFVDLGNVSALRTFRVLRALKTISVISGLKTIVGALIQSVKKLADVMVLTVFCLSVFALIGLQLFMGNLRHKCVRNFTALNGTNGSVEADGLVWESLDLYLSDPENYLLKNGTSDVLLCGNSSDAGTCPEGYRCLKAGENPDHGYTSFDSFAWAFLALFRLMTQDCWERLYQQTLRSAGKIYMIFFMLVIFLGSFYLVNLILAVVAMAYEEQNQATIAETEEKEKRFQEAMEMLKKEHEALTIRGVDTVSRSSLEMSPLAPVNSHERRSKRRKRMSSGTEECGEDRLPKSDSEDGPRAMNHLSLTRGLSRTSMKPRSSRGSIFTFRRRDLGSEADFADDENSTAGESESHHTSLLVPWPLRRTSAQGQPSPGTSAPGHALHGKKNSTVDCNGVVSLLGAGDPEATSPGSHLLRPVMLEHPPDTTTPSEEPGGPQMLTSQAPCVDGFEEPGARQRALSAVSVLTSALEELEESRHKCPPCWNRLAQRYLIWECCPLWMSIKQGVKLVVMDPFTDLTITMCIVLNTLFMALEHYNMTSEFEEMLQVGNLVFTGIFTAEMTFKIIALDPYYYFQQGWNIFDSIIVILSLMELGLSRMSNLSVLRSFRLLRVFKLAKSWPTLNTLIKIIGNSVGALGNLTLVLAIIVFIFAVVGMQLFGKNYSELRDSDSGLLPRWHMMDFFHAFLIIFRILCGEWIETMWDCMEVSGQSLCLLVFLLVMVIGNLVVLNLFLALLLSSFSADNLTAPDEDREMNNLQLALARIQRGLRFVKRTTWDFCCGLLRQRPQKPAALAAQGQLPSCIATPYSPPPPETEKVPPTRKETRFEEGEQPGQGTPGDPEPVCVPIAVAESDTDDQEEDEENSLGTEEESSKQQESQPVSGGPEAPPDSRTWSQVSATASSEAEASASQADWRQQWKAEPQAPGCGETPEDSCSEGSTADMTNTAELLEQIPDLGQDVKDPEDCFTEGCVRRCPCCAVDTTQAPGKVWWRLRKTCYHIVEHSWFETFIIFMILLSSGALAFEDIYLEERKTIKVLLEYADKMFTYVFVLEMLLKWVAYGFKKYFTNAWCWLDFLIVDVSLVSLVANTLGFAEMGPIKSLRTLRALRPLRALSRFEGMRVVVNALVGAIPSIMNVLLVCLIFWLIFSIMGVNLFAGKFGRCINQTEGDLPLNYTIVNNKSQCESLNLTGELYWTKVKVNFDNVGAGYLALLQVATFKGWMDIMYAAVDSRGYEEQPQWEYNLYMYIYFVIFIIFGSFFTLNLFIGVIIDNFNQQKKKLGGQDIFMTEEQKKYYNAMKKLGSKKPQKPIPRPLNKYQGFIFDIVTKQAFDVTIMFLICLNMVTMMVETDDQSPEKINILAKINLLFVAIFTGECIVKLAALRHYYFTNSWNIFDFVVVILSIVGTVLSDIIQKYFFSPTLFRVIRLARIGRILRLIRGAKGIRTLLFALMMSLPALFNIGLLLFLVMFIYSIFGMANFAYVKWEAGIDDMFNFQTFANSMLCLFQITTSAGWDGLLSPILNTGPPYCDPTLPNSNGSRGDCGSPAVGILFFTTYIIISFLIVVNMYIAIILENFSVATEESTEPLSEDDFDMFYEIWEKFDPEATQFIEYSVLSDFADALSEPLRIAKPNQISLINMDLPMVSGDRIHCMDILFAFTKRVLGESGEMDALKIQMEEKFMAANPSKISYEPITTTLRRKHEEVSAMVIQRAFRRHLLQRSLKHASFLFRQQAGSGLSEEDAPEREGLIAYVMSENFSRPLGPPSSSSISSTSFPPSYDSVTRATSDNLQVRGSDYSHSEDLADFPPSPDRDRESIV

Klebsiella pneumoniae [18] = assay: Antimicrobial activity against Klebsiella pneumoniae assessed as microbial growth inhibition; type: functional
Acinetobacter baumannii [19] = assay: Antibacterial activity against wild type Acinetobacter baumannii ATCC 19606 assessed as reduction in microbial growth incubated for 20 to 22 hrs by CLSI based analysis; type: functional; conditions: time 20-22 hrs
Escherichia coli [20] = assay: Antibacterial activity against wild type Escherichia coli ATCC 35218 assessed as reduction in microbial growth incubated for 20 to 22 hrs by CLSI based analysis; type: functional; conditions: time 20-22 hrs
[21] = Metabolic stability in mouse lung assessed as parent compound remaining measured after 1 hrs by UPLC-MS analysis; type: ADME, tissue-based; conditions: mouse lung, read-out: Stability
[22] = target: Voltage-dependent T-type calcium channel subunit alpha-1G (Homo sapiens, UniProt O43497); assay: Inhibition of Cav3.1 (unknown origin)
Escherichia coli [23] = assay: Antibacterial activity against Escherichia coli ATCC 35218 infected in Swiss albino mouse model of Septicaemia infection assessed as log reduction in Septicaemia in blood at 20 mg/kg , iv preincubated for 4 hrs followed by bacterial infection and measured after 4 hrs post infection; type: functional; conditions: time 8 hrs
Escherichia coli [24] = assay: Antibacterial activity against Escherichia coli ATCC 35218 assessed as reduction in microbial growth incubated for 20 to 22 hrs by CLSI based analysis; type: functional; conditions: time 20-22 hrs
[25] = Metabolic stability in mouse kidney assessed as parent compound remaining measured after 4 hrs by UPLC-MS analysis; type: ADME, tissue-based; conditions: read-out: Stability
Escherichia coli [26] = assay: Antibacterial activity against Escherichia coli D21 assessed as reduction in microbial growth incubated for 20 to 22 hrs by CLSI based analysis; type: functional; conditions: time 20-22 hrs
[27] = target: Sodium channel protein type 2 subunit alpha (Homo sapiens, UniProt Q99250); assay: Inhibition of Nav1.2 (unknown origin)
Sodium channel protein type 2 subunit alpha, sequence (Q99250 whole entry): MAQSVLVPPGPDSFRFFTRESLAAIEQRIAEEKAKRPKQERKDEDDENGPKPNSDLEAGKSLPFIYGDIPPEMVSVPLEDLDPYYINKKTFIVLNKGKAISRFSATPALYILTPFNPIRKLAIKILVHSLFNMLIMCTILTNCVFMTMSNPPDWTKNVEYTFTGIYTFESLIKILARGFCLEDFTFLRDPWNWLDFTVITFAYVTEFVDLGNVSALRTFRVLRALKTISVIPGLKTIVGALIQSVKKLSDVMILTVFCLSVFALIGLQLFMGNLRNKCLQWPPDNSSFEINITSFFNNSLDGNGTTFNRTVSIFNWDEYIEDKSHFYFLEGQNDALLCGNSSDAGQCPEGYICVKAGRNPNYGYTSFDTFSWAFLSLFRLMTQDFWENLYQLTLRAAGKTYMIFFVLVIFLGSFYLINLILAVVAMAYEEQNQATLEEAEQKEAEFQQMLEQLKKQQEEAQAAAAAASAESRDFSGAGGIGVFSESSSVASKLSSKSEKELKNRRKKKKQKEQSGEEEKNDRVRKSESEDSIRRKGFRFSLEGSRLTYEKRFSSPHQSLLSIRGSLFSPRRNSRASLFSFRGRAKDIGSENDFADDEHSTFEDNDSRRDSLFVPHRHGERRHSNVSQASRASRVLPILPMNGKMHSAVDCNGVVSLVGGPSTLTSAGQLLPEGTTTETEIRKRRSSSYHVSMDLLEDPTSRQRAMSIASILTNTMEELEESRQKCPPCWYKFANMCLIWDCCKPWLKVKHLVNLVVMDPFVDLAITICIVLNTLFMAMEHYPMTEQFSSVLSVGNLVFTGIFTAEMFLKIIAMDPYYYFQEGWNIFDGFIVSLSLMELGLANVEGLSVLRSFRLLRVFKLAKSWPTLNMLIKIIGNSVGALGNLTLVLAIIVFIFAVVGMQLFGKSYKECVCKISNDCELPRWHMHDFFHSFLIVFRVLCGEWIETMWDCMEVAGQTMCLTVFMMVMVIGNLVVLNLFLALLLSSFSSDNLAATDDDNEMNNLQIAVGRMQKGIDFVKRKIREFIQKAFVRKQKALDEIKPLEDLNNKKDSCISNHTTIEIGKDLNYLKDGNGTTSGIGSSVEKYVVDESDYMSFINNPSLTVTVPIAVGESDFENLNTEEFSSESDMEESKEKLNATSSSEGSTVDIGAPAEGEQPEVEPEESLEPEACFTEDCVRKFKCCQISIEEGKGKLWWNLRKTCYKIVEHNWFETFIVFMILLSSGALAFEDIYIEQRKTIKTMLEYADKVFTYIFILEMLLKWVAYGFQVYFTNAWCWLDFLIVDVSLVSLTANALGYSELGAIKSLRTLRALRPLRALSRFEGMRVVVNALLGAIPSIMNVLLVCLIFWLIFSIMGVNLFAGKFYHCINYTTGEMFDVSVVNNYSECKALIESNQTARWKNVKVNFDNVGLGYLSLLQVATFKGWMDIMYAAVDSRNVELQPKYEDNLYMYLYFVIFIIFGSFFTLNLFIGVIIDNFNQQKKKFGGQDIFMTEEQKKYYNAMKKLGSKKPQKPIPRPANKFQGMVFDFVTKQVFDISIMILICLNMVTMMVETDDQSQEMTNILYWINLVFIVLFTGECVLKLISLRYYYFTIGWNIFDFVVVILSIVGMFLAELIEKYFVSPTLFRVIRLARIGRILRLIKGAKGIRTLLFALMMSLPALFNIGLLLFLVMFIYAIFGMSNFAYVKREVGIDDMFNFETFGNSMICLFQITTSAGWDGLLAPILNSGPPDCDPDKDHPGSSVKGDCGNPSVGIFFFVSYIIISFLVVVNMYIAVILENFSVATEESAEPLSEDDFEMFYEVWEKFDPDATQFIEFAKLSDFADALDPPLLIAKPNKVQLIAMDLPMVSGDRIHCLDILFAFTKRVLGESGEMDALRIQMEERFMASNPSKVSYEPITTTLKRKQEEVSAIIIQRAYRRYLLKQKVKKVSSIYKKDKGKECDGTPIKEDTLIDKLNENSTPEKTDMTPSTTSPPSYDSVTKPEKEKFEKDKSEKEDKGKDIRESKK

[28] = Metabolic stability in mouse lung assessed as M1 metabolite formation measured upto 4 hrs by UPLC-MS analysis; type: ADME, tissue-based
Klebsiella pneumoniae [29] = assay: Antibacterial activity against Klebsiella pneumoniae ATCC 13883 assessed as reduction in microbial growth incubated for 20 to 22 hrs by CLSI based analysis; type: functional; conditions: time 20-22 hrs
[30] = Metabolic stability in mouse kidney assessed as M1 metabolite formation measured upto 4 hrs by UPLC-MS analysis; type: ADME, tissue-based
Pseudomonas aeruginosa [31] = assay: Antibacterial activity against multidrug-resistant Pseudomonas aeruginosa PAO750 assessed as bacterial growth inhibition incubated for 20 to 22 hrs by CLSI based analysis; type: functional; conditions: time 20-22 hrs
Escherichia coli [32] = assay: Antibacterial activity against multidrug-resistant Escherichia coli BAA2469 assessed as bacterial growth inhibition incubated for 20 to 22 hrs by CLSI based analysis; type: functional; conditions: time 20-22 hrs
Escherichia coli [33] = assay: Antibacterial activity against multidrug-resistant Escherichia coli MG1655 harboring tolC mutant assessed as bacterial growth inhibition incubated for 20 to 22 hrs by CLSI based analysis; type: functional; conditions: time 20-22 hrs
Acinetobacter baumannii [34] = assay: Antibacterial activity against multidrug-resistant Acinetobacter baumannii R831 assessed as bacterial growth inhibition incubated for 20 to 22 hrs by CLSI based analysis; type: functional; conditions: time 20-22 hrs
Klebsiella pneumoniae [35] = assay: Antibacterial activity against multidrug-resistant Klebsiella pneumoniae BAA2473 assessed as bacterial growth inhibition incubated for 20 to 22 hrs by CLSI based analysis; type: functional; conditions: time 20-22 hrs
Pseudomonas aeruginosa [36] = assay: Antibacterial activity against multidrug-resistant Pseudomonas aeruginosa PAO1 assessed as bacterial growth inhibition incubated for 20 to 22 hrs by CLSI based analysis; type: functional; conditions: time 20-22 hrs
Acinetobacter baumannii [37] = assay: Antibacterial activity against multidrug-resistant Acinetobacter baumannii R835 assessed as bacterial growth inhibition incubated for 20 to 22 hrs by CLSI based analysis; type: functional; conditions: time 20-22 hrs
Enterobacter cloacae = assay: Antibacterial activity against multidrug-resistant Enterobacter cloacae BAA2341 assessed as bacterial growth inhibition incubated for 20 to 22 hrs by CLSI based analysis; type: functional; conditions: time 20-22 hrs
Klebsiella pneumoniae [38] = assay: Antibacterial activity against […] assessed as bacterial growth inhibition incubated for 20 to 22 hrs by CLSI based analysis; type: functional; conditions: time 20-22 hrs
Escherichia coli [39] = assay: Antibacterial activity against multidrug-resistant Escherichia coli MG1655 assessed as bacterial growth inhibition incubated for 20 to 22 hrs by CLSI based analysis; type: functional; conditions: time 20-22 hrs
Citrobacter freundii = assay: Antibacterial activity against multidrug-resistant Citrobacter freundii ATCC 8090 assessed as bacterial growth inhibition incubated for 20 to 22 hrs by CLSI based analysis; type: functional; conditions: time 20-22 hrs
Proteus mirabilis = assay: Antibacterial activity against multidrug-resistant Proteus mirabilis ATCC 7002 assessed as bacterial growth inhibition incubated for 20 to 22 hrs by CLSI based analysis; type: functional; conditions: time 20-22 hrs
Klebsiella pneumoniae [40] = assay: Antibacterial activity against multidrug-resistant Klebsiella pneumoniae R1525 assessed as bacterial growth inhibition incubated for 20 to 22 hrs by CLSI based analysis; type: functional; conditions: time 20-22 hrs
Escherichia coli [41] = assay: Antibacterial activity against multidrug-resistant Escherichia coli UT189 assessed as bacterial growth inhibition incubated for 20 to 22 hrs by CLSI based analysis; type: functional; conditions: time 20-22 hrs
Escherichia coli [42] = assay: Antibacterial activity against […] assessed as bacterial growth inhibition incubated for 20 to 22 hrs by CLSI based analysis; type: functional; conditions: time 20-22 hrs
Klebsiella pneumoniae [43] = assay: Antibacterial activity against multidrug-resistant Klebsiella pneumoniae BAA2146 assessed as bacterial growth inhibition incubated for 20 to 22 hrs by CLSI based analysis; type: functional; conditions: time 20-22 hrs
Providencia stuartii = assay: Antibacterial activity against multidrug-resistant Providencia stuartii ATCC 49809 assessed as bacterial growth inhibition incubated for 20 to 22 hrs by CLSI based analysis; type: functional; conditions: time 20-22 hrs
Klebsiella pneumoniae [44] = assay: Antibacterial activity against multidrug-resistant Klebsiella pneumoniae G199 assessed as bacterial growth inhibition incubated for 20 to 22 hrs by CLSI based analysis; type: functional; conditions: time 20-22 hrs

For `CO[C@@H](CNC(=O)[C@H](NC(=O)[C@H](O)[C@H](C)O)[C@H](O)c1cncn1C)[C@H](O)[C@H](O)C(=O)N(C)[C@@H](Cc1ccccc1)C(=O)NCC(=O)N[C@H](C(=O)N[C@@H](CO)C(=O)N[C@H](C(=O)N[C@@H](CC(C)C)C(=O)N[C@@H](CO)C(=O)O)C(C)(C)O)C(C)(C)O` ({Butanoyl(2R-OH,3S-OH)}-[dHis(βS-OH,π-Me)][Ava(2S,3R-(OH)2,4S-OMe)][NMeF]G[Val(3-OH)]S[Val(3-OH)]LS-OH), the MIC (Klebsiella pneumoniae [1]) was 16 µg/mL, the logD [2] was 0.68 and the Papp [3] was < 10 ×10⁻⁶ cm/s. For the same compound, the inhibition at 30 µM (HepG2) was 0%, the Drug metabolism [4] was “Metabolite_Detected” and the IC50 [5] was > 30 µM. The MIC (Escherichia coli [6]) was 4 µg/mL, the remaining at 4 h [7] was 1% and the MIC (Pseudomonas aeruginosa [8]) was > 64 µg/mL. The MIC (Klebsiella pneumoniae [9]) was 16 µg/mL, the MIC (Acinetobacter baumannii [10]) was > 32 µg/mL and the remaining at 1 h [11] was 41%. The Activity (Escherichia coli [12]) was “<=60%”, the MIC (Escherichia coli [13]) was 0.25 µg/mL and the IC50 [14] was > 30 µM. The MIC (Escherichia coli [15]) was 1 µg/mL (≈ 0.844 µM), the solubility [16] was 2800 µg/mL (≈ 2360 µM) and the IC50 [17] was > 30 µM. The MIC (Klebsiella pneumoniae [18]) was ≥ 64 µg/mL, the MIC (Acinetobacter baumannii [19]) was > 32 µg/mL and the MIC (Escherichia coli [20]) was 4 µg/mL. The remaining at 1 h [21] was 7%, the IC50 [22] was > 30 µM and the Activity (Escherichia coli [23]) was -3.3 log10CFU. For the same compound, the MIC (Escherichia coli [24]) was 4 µg/mL, the remaining at 4 h [25] was 6% and the MIC (Escherichia coli [26]) was 4 µg/mL. For the same compound, the IC50 [27] was > 30 µM, the Drug metabolism [28] was “Metabolite_Detected” and the MIC (Klebsiella pneumoniae [29]) was 16 µg/mL. For the same compound, the Drug metabolism [30] was “Metabolite_Detected”.

In the case of `C[C@@H](O)[C@H]1C(=O)N2C(C(=O)O)=C(SCCNC=N)C[C@H]12` [IMIPENEM ANHYDROUS], the MIC (Pseudomonas aeruginosa [31]) is reported as 1 µg/mL (≈ 3.34 µM), the MIC (Escherichia coli [32]) is reported as > 2 µg/mL and the MIC (Escherichia coli [33]) is reported as ≤ 0.015 µg/mL. The MIC (Acinetobacter baumannii [34]) was > 64 µg/mL, the MIC (Klebsiella pneumoniae [35]) was 1 µg/mL (≈ 3.34 µM) and the MIC (Pseudomonas aeruginosa [36]) was 2 µg/mL (≈ 6.68 µM). For the same compound, the MIC (Acinetobacter baumannii [37]) was > 1 µg/mL, the MIC (Enterobacter cloacae) was > 64 µg/mL and the MIC (Klebsiella pneumoniae [38]) was 16 µg/mL (≈ 53.4 µM). For the same compound, the MIC (Escherichia coli [39]) was ≤ 0.015 µg/mL, the MIC (Citrobacter freundii) was 1 µg/mL (≈ 3.34 µM) and the MIC (Proteus mirabilis) was 1 µg/mL (≈ 3.34 µM). The MIC (Klebsiella pneumoniae [40]) was > 64 µg/mL, the MIC (Escherichia coli [41]) was ≤ 0.25 µg/mL and the MIC (Escherichia coli [42]) was 0.25 µg/mL (≈ 0.835 µM). For the same compound, the MIC (Klebsiella pneumoniae [43]) was > 16 µg/mL, the MIC (Providencia stuartii) was < 0.125 µg/mL and the MIC (Klebsiella pneumoniae [44]) was 16 µg/mL (≈ 53.4 µM).
